{"source": "patent US7682635B2", "about": "“Aqueous dispersions of nanometric or micrometric particles for encapsulating chemical compounds” (Centre National de la Recherche Scientifique (C.N.R.S.), priority 2002, dated 2010)", "assay": "Encapsulation of benzophenone in particles (ultracentrifugation, spectrophotometry of supernatant at 261 nm)", "assay_type": "physicochemical", "protocol": "An aqueous solution of polymer P2 as defined in Example 1 (0.44 g/l) was produced, to which benzophenone was added with a molar ratio of benzophenone added: cyclodextrin equal to 1:1. This solution was left under agitation for 24 hours.\nA composition of particles was prepared by mixture of 1 ml of the solution thus obtained with 1 ml of a solution of modified dextran DM3 as defined in Example 1 (0.44 g/l).\nAfter mixture, the particles produced were ultracentrifuged (30 minutes at 40000 r.p.m. in a Beckman L7-55 centrifuge). The non-encapsulated benzophenone present in the supernatant was dosaged by spectrophotometry (absorption line at 261 nm).\nThe experiment was repeated using a molar ratio of benzophenone added: cyclodextrin equal to 1:3 for the solution of polymer P2.\nThe experiment was also repeated using modified dextran DM4 instead of DM3.\nFinally, the experiment was also repeated using a molar ratio of benzophenone added cyclodextrin equal to 1:3 for the solution of polymer P2 and also replacing the modified dextran DM3 by DM4.", "data": [{"smiles": "O=C(c1ccccc1)c1ccccc1", "note": "[benzophenone]", "values": [{"measurement": "benzophenone initially introduced found in the supernatant", "setting": "4 cases: P2 with DM3 or DM4, benzophenone:cyclodextrin 1:1 or 1:3, after ultracentrifugation", "value": "less than 70%"}, {"measurement": "benzophenone content of particles", "setting": "molar ratio benzophenone:cyclodextrin 1:1 in the initial solution of P2", "value": 1, "unit": "% by mass"}, {"measurement": "benzophenone content of particles", "setting": "molar ratio benzophenone:cyclodextrin 1:3", "value": 3, "unit": "% by mass"}]}]}
